Earlier results as cited in US7611833B2, “Yeast genes that affect viral replication” (priority 2001, dated 2009).
Where two headings read alike, the source gives them in different places.

Key:
poliovirus [1] = system: poliovirus
poliovirus [2] = system: poliovirus; remark: listed apart in the source
poliovirus [3] = system: poliovirus; remark: listed apart in the source
HeLa cells = HeLa cells treated with oleic acid

Structure (SMILES)	RNA replication by poliovirus (poliovirus [1])	RNA replication by the alphavirus SFV (alphavirus SFV)	Poliovirus RNA replication (poliovirus [2])	In vitro translation (poliovirus [3])	Poliovirus RNA replication (poliovirus [3])	Synthesis of lipids (HeLa cells)
C/C=C/C/C=C/CCC(=O)[C@H]1O[C@H]1C(N)=O [Cerulenin]	inhibits RNA replication	inhibits RNA replication				
CCCCCCCC/C=C\CCCCCCCC(=O)O [oleic acid]			disrupts poliovirus RNA replication	inhibited in vitro translation	disrupts poliovirus RNA replication	major changes in the synthesis of many lipids
